Assay results reported in a melting point compilation (Tetko et al.; mined from patent text by program, amines drawn as free bases though some values may be those of a salt).

Structure (SMILES) | melting point [°C]
O=c1[nH]cnc2c1sc(=O)n2C1OC(CO)C(O)C1O (stereo not drawn) | 216 to 218
CCOC(=O)c1[nH]c(-n2ccc(OCc3ccccc3)cc2=O)nc1C | 135 to 136
COc1cc(Cc2cnc(N)nc2N)ccc1N | 210 to 212
O=C1c2ccccc2C(=O)N1OCc1cc[nH]n1 | 166 to 168
O=C(c1cccc(O)c1)C(O)c1cccc(O)c1 (stereo not drawn) | 159 to 162
CCc1ccccc1C=CC=C1SC(=S)N(CC(=O)O)C1=O | 161 to 183
Nc1nc(N)c2c(ccc3[nH]c4c(c32)CCCC4)n1 | 300 to 303
COC(=O)c1ccc2c(c1)COC(C(Cl)(Cl)Cl)N2 (stereo not drawn) | 116 to 117
CC(=O)Cc1ccccc1Br | 60 to 65
COc1cccc2c(CCOCc3ccc(-c4ccccc4)cc3)coc12 | 77 to 78
NS(=O)(=O)OCCCN1CCC(C(O)(c2ccc(F)cc2)c2ccc(F)cc2)CC1 | 78 to 81
CNS(=O)(=O)Cc1cc(Br)c(N)c(Br)c1 | 155 to 157
COc1ccc(C(NCC(c2ccccc2)c2ccccc2)c2cccc(Nc3c(N)c(=O)c3=O)c2)cc1 (stereo not drawn) | 193 to 194
O=C(NCC#CCN1CCCC1)N1c2ccccc2-c2noc3c2C1CCC3 (stereo not drawn) | 132
COC=C(C(=O)OC)N(C)c1ccnc(-c2ccccc2)n1 | 152 to 154
CC(Oc1ccc(Oc2cnc3ccccc3n2)cc1)C(=O)O (stereo not drawn) | 137 to 141
S=C(NCCCCN(Cc1ccc(Br)cc1)c1ccccn1)NCCCn1ccnc1 | 122 to 124
O=C1Nc2cc3c(cc2O[C@H]1CCCO)CCCC3 | 139 to 140
Oc1cc(Cl)c2nc(-c3ccc(O)c(F)c3)cc(Br)c2c1 | 184 to 186
CN(C)C(=O)C1(n2ccc(-c3ccccc3)n2)CC1 | 96 to 99
COc1ccc(CN(CCN(C)CCCCCCNC(=O)NCCSCc2csc(NC(=N)N)n2)c2ccccn2)cc1 | 60
CNNC(=O)Nc1ncnc2cc(OC)c(OC)cc12 | 246 to 247
O=C(c1ccc(F)cc1)C1CCN(CCCn2c(=O)[nH]c3ccc(Cl)cc32)CC1 | 157
CC(C)(C)C(NC(=O)c1ccc(Cl)cc1)NC(=NC#N)NCc1ccc(Cl)cc1 (stereo not drawn) | 173 to 175
CN(C)n1cn[nH]c1=O | 127
Cc1cc(C=O)c(OCCCCOc2c(C=O)cc(C)cc2C=O)c(C=O)c1 | 205

Structure (SMILES) | melting point [°C]
CC(C)C(=O)N1C2=NC(C)(C)N(C)C(=O)N2c2ccccc21 | 99 to 102
O=C1CCC(O)(c2ccc(F)c(F)c2)CC1 | 84 to 85
CC(C)CNS(=O)(=O)c1cccc(NC(=O)c2cnn3c(C(F)F)cc(-c4ccc(C(F)(F)F)cc4)nc23)c1 | 186
CC(C)(C)C1CCC(C(=O)Nc2ccncc2)CC1 (stereo not drawn) | 150 to 151
Cc1cc(O)cc(C)c1N=Cc1ccccc1O | 145 to 147
Cc1nn(CC(F)(F)COCc2ccccc2)c(-c2ccc(F)cc2)c1-c1ccc2c(c1)NC(=O)CO2 | 154 to 155
N#C[C@@H]1C[C@H](F)CN1C(=O)CCl | 97 to 100
COc1cc(N)c(N)cc1C(N)=O | 181 to 183
COc1ccc(-c2cc(=O)c3c(OCC(O)CO)cc(OCC(O)CO)cc3o2)cc1O (stereo not drawn) | 204
COCc1c(C(=O)OC)ncc2[nH]c3ccccc3c12 | 134 to 135
Cn1ccnc1Sc1ccc(Nc2c(C#N)cnc3cc(/C=C/CCN4CCC(N5CCCC5)CC4)sc23)cc1Cl | 213 to 216
COc1ccc2cc(C(=O)[C@H](C)Br)ccc2c1 | 90 to 91
NC(Cc1ccc(OCc2ccccc2)cc1)C(=O)Nc1c(F)cc(F)cc1F (stereo not drawn) | 80.5 to 86.5
CCCCCCCCOc1ccc(-c2cc(F)cc(F)c2F)cc1 | 31
OCc1nccc(N2CCOCC2)c1Cl | 80 to 82
COc1ccc(Cl)c(NC(=O)Cc2ccc(Cl)cc2)c1 | 149 to 151
Cc1cccc(C(=O)c2cc3c(ccc4ccccc43)oc2=O)c1 | 190 to 192
CCOC(=O)CCC1CCN(c2ccc(C#N)c3ccccc23)CC1 | 106 to 107
Cc1ccc(-c2cncn2-c2ccc(S(C)(=O)=O)cc2)cc1 | 156
CCCCCCCCCCCCCC/C=C\CC[C@@H]1OC(=O)C(O)=C1O | 64 to 66
Clc1ccc2c(c1)C(c1ccccc1)=NCc1nnc(C(Cl)Cl)n1-2 | 193 to 196
CC1(C)OC[C@H](COc2ccc(C(=O)c3ccc([N+](=O)[O-])cc3)cc2)O1 | 92 to 93
CCOC(=O)c1ccc(-c2nn(Cc3ccccc3)c3ccccc23)cc1 | 95 to 96
CCCCC(O)(c1cn(C(c2ccccc2)(c2ccccc2)c2ccccc2)cn1)c1cc(Cl)cc2c1OC(C)(C)OC2 (stereo not drawn) | 124
CCCOc1cc(CCCOc2c(CC(=O)O)cccc2OC)n(Cc2ccc(F)cc2F)n1 | 77 to 80
O=C(Nc1cccc2c(Cn3ccnc3)ccnc12)c1c(Cl)cccc1Cl | > 250

Structure (SMILES) | melting point [°C]
O=S1(=O)CCCS(=O)(=O)C1(CCCCl)c1ccccc1 | 182
Cc1noc(NS(=O)(=O)c2ccsc2C(=O)Nc2ccccc2)c1C | 176
COc1cccc2c1C(=O)N(CSc1ccccc1)S2(=O)=O | 152 to 154
N#Cc1ccc2[nH]cc(Cc3cccnc3)c2c1 | 125
COc1ccc(CC2=Cc3ncccc3Nc3cccnc32)cc1 | 124 to 127
CCCCCC[C@@H](F)COc1cnc(-c2ccc(CCCCC)c(F)c2F)nc1 | 74.7
CC(=O)SCC(C)C(=O)N(C(C)C(=O)O)C1CCc2ccccc21 (stereo not drawn) | 133 to 137
CN(C)Cc1cc(C(=O)C2CCCCC2)cc(C(C)(C)C)c1O | 149 to 150
O=C(NCC1CCCC1)NC1CCN(CC23CC(c4ccccc42)c2ccccc23)CC1 | 197 to 198
COc1cc2c(C3=CCNCC3)c[nH]c2cc1Cl | 222 to 224
Cc1ccc(C)c(Oc2noc(=O)n2S(=O)(=O)N(C)C)c1 | 101 to 103
CCNC1CN(c2cc3c(cc2F)c(=O)c2c(=O)[nH]sc2n3C2CC2)C1 | 231 to 236
O=C1OC2(C=C1c1ccccc1)C=C(c1ccccc1)C(=O)O2 | 235 to 237
C[C@H](c1ncnc(Sc2ccc(Cl)cc2)c1F)[C@@](O)(Cn1cncn1)c1ccc(F)cc1F | 158 to 160
CC(C)(CCC#N)c1ccc(C(=O)Nc2cn3c4c(ccc3n2)OCC4)cc1 | 227 to 228
Cc1[nH]c2ccc(S(=O)(=O)c3cc(F)cc(F)c3)cc2c1CCNC(=O)OC(C)(C)C | 201 to 204
COc1cc(C=Cc2nc3c(c(=O)n(C)c(=O)n3C)n2C)cc(OC)c1 | 228 to 230
CCCCCCCCCCCCCCCCCCOc1cc(O)cc(C(=O)OC)c1 | 93 to 94
CC#CCOc1ccc(S(=O)(=O)NC2(C(=O)O)CCCC2)cc1 | 108 to 110
CCOC(=O)C1=CNC2=C(C(=O)OCC)CCC(C)N2C1=O (stereo not drawn) | 138 to 140
CSc1c(O[C@@H]2CCC[C@H](N)C2)ccc2[nH]ncc12 (relative stereo) | 112 to 113
O=C1N(c2c(Cl)cccc2Cl)Cc2cnc(Nc3ccccc3)nc2N1c1ccccc1 | 138
O=C1CCC(c2ccccc2Cl)=NN1 | 114 to 116
N#Cc1c2c(c3c(c1N1CCCC1)Cc1ccccc1-3)-c1ccccc1C2 | 206 to 208
CC(C)(C)[Si](C)(C)OC1CC=C(c2ccc(NC(=O)OCc3ccccc3)c(F)c2)CC1 (stereo not drawn) | 116 to 119
CC1CC2=CC(=O)CCC2C2CCC3(C)C(C(F)F)CCC3C12 (stereo not drawn) | 131 to 135

Structure (SMILES) | melting point [°C]
CCOC(=O)c1ncn2c1c(Cl)nc1ccccc12 | 128 to 130
Cc1ccc(Oc2ccc(-c3noc(=O)[nH]3)cc2)c(O)c1 | 195 to 198
c1ccc2c(c1)CC(N1CCN(c3ccc4c(c3)OCCO4)CC1)C2 | 183 to 185
CNC(=S)c1cnn(-c2ccccc2)c1C#N | 215 to 217
CCCCc1nc2c(c(=O)[nH]1)CN(C(=O)OCC[Si](C)(C)C)CC2 | 152 to 155
C=CC(CC(O)C(CC1CCCCC1)NC(=O)C(Cc1ncc[nH]1)NC(=O)C(Cc1ccccc1)NC(=O)C(N)COC(C)(C)C)C(C)C (stereo not drawn) | 103
O=C(NCCO)c1ccc(OCC2(O)CCN(Cc3ccccc3)CC2)cc1 | 161
CC(C)(C)OC(=O)c1ccccc1-c1ccc(CBr)cc1 | 98 to 101
CCOC(=O)c1cnc2scc(C)c2c1O | 189 to 192
Oc1cc(O)c(C23CC4CC(CC(C4)C2)C3)cc1C12CC3CC(CC(C3)C1)C2 | 146
CC(C)C(NC(=O)OCc1ccccc1)C(=O)NC(Cc1ccccc1)C(O)C(Cc1ccccc1)NC(=O)C(NC(=O)N1CCN(C)CC1)C(C)C (stereo not drawn) | 175 to 176
O=C(O)CCc1oc(Sc2nccn2-c2ccccc2)nc1-c1ccc(Cl)cc1 | 185 to 187
CCOCc1nc2c(N)nc3ccccc3c2n1CC1(O)CCN(C(=O)Nc2ccccc2)CC1 | 184 to 186
CCCCCCCCCCCCCCCCCCN(C)c1ccc(N)cc1C(=O)O | 81 to 83
CC(C)(C)c1ccc(C2C=C(c3ccc(C#C[Si](C)(C)C)cc3)NN2c2ccccc2)cc1 (stereo not drawn) | 160 to 162
O=[N+]([O-])c1cccc(S(=O)(=O)NC(CO)(CO)CO)c1 | 98 to 99
Cn1nc(-c2ccccc2)nc1-c1ccccc1CO | 122
CC(C)Cn1c(COc2ccccc2)nc2c(N)nc3ccccc3c21 | 196 to 197
Cc1c2ccccc2c2c3c(cccc13)C(=O)OC2=O | 275 to 280
CCCNc1ccc(C=O)cc1[N+](=O)[O-] | 73.6
CCOC(=O)c1cnc(N2CCN(Cc3ccccc3)CC2)nc1C(=O)OCC | 66
COC(=O)C=C1C(=O)N(c2ccccc2)C(=O)N1Cc1ccccc1 | 130
CC(C)(C)c1cc(N=C=O)no1 | 165 to 167
ClCc1cccc(-c2nnn[nH]2)c1 | 152 to 154
CCCCCN1C(=O)C(CO)(c2cc3c(cc2O)OCO3)c2ccccc21 (stereo not drawn) | 125 to 127
